Legend:
[1] = system: monocyte/macrophage recruitment; test: Thioglycollate (TG)-induced mouse model of peritonitis: peritoneal lavage monocyte/macrophage counts; assay type: in vivo; conditions: dexamethasone 1 mg/kg QD PO Days 1-5; 48 h post-TG
Description: A murine thioglycollate (TG)-induced model of peritonitis, where acute inflammation induced by intraperitoneal (IP) injection of TG results in a rapid increase in monocyte/macrophage migration into the peritoneal cavity, was employed to assess the effects of CVC on cell recruitment in vivo. The protocol was approved by the IACUC of Charles River Laboratories Preclinical Services, Montreal (PCS-MTL). The care and use of animals was conducted in accordance with the guidelines of the US National Research Council and the Canadian Council on Animal Care.
Male C57BL/6 mice (n = 44; 8–10 weeks of age; Charles River Laboratories, Canada) were allocated to receive treatments via oral gavage (PO) on Days 1–5 in the following groups: non-disease control, vehicle control twice daily (BID), CVC 5 mg/kg/day (CVC5) BID, CVC 20 mg/kg/day (CVC20) BID, CVC 100 mg/kg/day (CVC100) BID, CVC20 QD, and positive control dexamethasone (corticosteroid known to reduce inflammation in a variety of animal models) 1 mg/kg QD (S1 Table). On Day 4, peritonitis was induced via IP injection of TG 3.85% (1 mL/animal) 2 hours post-dose in all groups except non-disease controls. Study endpoints included: peritoneal lavage cell counts and pharmacokinetic (PK) evaluation. Animals were sacrificed 48 hours post-TG injection by isoflurane inhalation, and peritoneal lavage and blood samples (0.7 mL) were collected. Differential cell counts were assessed in peritoneal lavage samples using an Advia® Hematology System (Siemens Healthcare Diagnostics, USA) with multispecies software and an analysis software designed for mouse peritoneal fluid on Advia® 120 (LabThruPut, USA). A 0.3 mL aliquot of the blood sample was processed to plasma for PK analysis.
(§1) In the peritonitis mouse model, one-way analysis of variance with post-hoc Dunnett’s test was performed, using GraphPad Prism® (GraphPad Software, Inc., USA), on differential cell counts obtained from lavage in treatment groups versus the vehicle-control group. For the ex vivo migration of mouse monocytes, statistical significance was determined by a Student’s t test.

[2] = system: CCL2-mediated chemotaxis of activated murine macrophages (F4/80+/CD11b+); test: Ex vivo CCL2-induced chemotaxis of activated mouse macrophages (Transwell); assay type: cell-based; conditions: CCL2-stimulated cells (1 nM CCL2), no CVC, 2 hours
Description: Mouse monocyte migration in response to CVC treatment was assessed ex vivo in triplicate. TG was injected intraperitoneally into male C57BL/6 mice (n = 3; 8–10 weeks of age; Jackson Laboratory, USA) and activated macrophages were collected 48 hours later by peritoneal lavage. Chemotaxis was assayed using a Transwell® Chamber (Costar, USA) with a 5 μm-pore size polycarbonate filter, as previously described. Briefly, cells were incubated for 2 hours in the presence of 1 nM CCL2 and/or 1 μM CVC (dissolved in dimethyl sulfoxide with 0.5% acetic acid and diluted 1:1000 with serum-free Roswell Park Memorial Institute-1640 medium and 0.5% bovine serum albumin). Cells were harvested from the lower compartment and analyzed by flow cytometry to enumerate F4/80^+CD11b^+ macrophages using a 3-laser BD FACSCanto™ (BD Biosciences, Canada). Results were analyzed using FlowJo software (Tree Star Inc., USA).
as §1

Row | Molecule | Decrease in peritoneal lavage monocyte/macrophage counts compared to vehicle control [1] [%] | Average fold change in migrating cells (±SD) compared to untreated and unstimulated cells [2] [fold]
1 | C[C@@H]1C[C@H]2[C@@H]3CCC4=CC(=O)C=C[C@]4(C)[C@@]3(F)[C@@H](O)C[C@]2(C)[C@@]1(O)C(=O)CO [dexamethasone, reference compound] | 38.1 | 
2 | CCL2: C-C chemokine ligand type 2, chemotaxis stimulus for activated macrophages [reference compound] |  | 4.6±0.9
